From the Kinase Knowledgebase extract (Sharma et al. 2016)

Target: PIK3CG (human) (UniProt P48736)
Experiment: Assessment of PIK3CG Kinase Activity

PIK3CG (human), sequence (P48736 whole entry, looked up): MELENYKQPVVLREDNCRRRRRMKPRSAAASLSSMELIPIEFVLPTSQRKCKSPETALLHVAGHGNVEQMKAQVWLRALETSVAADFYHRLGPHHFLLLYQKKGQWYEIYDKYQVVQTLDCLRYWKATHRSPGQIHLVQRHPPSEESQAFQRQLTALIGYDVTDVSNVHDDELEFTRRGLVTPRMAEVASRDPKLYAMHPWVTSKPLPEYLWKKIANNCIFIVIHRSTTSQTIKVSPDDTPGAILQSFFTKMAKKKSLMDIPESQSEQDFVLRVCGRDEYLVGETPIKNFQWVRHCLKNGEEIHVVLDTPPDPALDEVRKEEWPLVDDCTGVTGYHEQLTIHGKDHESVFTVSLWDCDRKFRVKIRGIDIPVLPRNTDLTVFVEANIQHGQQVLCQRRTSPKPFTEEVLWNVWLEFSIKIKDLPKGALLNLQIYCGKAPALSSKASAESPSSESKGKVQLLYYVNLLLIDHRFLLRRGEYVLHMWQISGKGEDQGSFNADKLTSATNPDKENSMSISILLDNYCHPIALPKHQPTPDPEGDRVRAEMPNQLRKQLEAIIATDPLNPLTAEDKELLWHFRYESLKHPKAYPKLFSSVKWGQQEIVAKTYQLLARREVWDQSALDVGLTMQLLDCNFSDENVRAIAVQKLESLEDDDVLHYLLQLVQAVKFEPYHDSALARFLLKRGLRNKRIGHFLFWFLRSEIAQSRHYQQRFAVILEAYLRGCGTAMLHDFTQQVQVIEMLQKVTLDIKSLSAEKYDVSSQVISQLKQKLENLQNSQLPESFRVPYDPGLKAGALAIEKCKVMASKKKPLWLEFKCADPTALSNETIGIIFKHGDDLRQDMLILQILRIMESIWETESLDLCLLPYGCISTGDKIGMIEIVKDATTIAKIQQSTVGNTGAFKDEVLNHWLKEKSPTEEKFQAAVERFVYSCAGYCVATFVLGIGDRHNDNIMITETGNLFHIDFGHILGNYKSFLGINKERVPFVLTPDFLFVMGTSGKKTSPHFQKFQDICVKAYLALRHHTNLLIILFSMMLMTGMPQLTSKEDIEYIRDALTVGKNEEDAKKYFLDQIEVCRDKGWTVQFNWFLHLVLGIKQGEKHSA

Row | Ki | SMILES
1 | < 50 nM | COc1cc(C#Cc2sc(NC(=O)NCCOc3cccnc3)nc2C)cnc1OC
2 | < 50 nM | Cc1nc(NC(=O)NCCOCC2CC2)sc1C#Cc1cc(F)ncc1Cl
3 | < 50 nM | COc1cc(C#Cc2sc(NC(=O)NC[C@H](C)OCC3CC3)nc2C)cnc1OC
4 | < 50 nM | Cc1nc(NC(=O)NCCc2cccnc2)sc1C#Cc1ccncc1
5 | 50 to 250 nM | Cc1nc(NC(=O)NCCOCC2CC2)sc1C#Cc1cnc(Cl)c(F)c1
6 | 50 to 250 nM | Cc1nc(NC(=O)CCCc2cc[nH]c2)sc1C#Cc1ccncc1
7 | 50 to 250 nM | Cc1nc(NC(=O)CCCC(=O)NCC(F)(F)F)sc1C#Cc1ccncc1
8 | < 50 nM | CCOC(=O)CCNC(=O)Nc1nc(C)c(C#Cc2ccncc2)s1
9 | < 50 nM | Cc1nc(NC(=O)NCCC(=O)c2ccccc2)sc1C#Cc1ccncc1
10 | < 50 nM | CC(=O)Nc1nc(C)c(C#Cc2ccncc2)s1
11 | 50 to 250 nM | Cc1nc(NC(=O)NCCn2cnc(C(F)(F)F)c2)sc1C#Cc1ccncc1
12 | < 50 nM | COc1cncc(C#Cc2sc(NC(=O)NC[C@H](C)O)nc2C)c1
13 | 50 to 250 nM | Cc1nc(NC(=O)COc2ccccc2)sc1C#Cc1ccncc1
14 | 50 to 250 nM | CC(=O)Nc1nc(C)c(C#Cc2ccc(Cl)nc2)s1
15 | < 50 nM | Cc1nc(NC(=O)NCCc2cn(CC(F)F)cn2)sc1C#Cc1cccnc1
16 | < 50 nM | Cc1cccc(OCCNC(=O)Nc2nc(C)c(C#Cc3ccncc3)s2)c1
17 | < 50 nM | Cc1nc(NC(=O)NCCOCC2CC2)sc1C#Cc1ccc2nccn2c1
18 | 50 to 250 nM | COc1cccc(C#Cc2sc(NC(C)=O)nc2C)c1
19 | < 50 nM | CCCOCCNC(=O)Nc1nc(C)c(C#Cc2ccncc2)s1
20 | 50 to 250 nM | CC(=O)Nc1nc(C)c(C#Cc2cncc(C(F)(F)F)c2)s1
21 | < 50 nM | Cc1nc(NC(=O)CNC(=O)c2ccccn2)sc1C#Cc1cccnc1
22 | 50 to 250 nM | Cc1nc(NC(=O)NCCOCC2CC2)sc1C#Cc1ccn(C)c(=O)c1
23 | < 50 nM | Cc1nc(NC(=O)NCCOCC2CC2)sc1C#Cc1ccnc(F)c1
24 | < 50 nM | CCC(O)CNC(=O)Nc1nc(C)c(C#Cc2cncc(OC)c2)s1 (stereo not given)
25 | 50 to 250 nM | CCc1ccc(OCCNC(=O)Nc2nc(C)c(C#Cc3ccncc3)s2)cc1
26 | < 50 nM | Cc1nc(NC(=O)NCCOc2ccccc2)sc1C#Cc1ccncc1
27 | < 50 nM | CCc1cnc(CCNC(=O)Nc2nc(C)c(C#Cc3ccncc3)s2)s1
28 | 50 to 250 nM | Cc1nc(NC(=O)COCc2ccccc2)sc1C#Cc1ccncc1
29 | 50 to 250 nM | Cc1nc(NC(=O)NCCOCC2CC2)sc1C#Cc1cncc(C(F)(F)F)c1
30 | < 50 nM | CCOC(=O)CCCNC(=O)Nc1nc(C)c(C#Cc2ccncc2)s1
